Measurements from ChEMBL document CHEMBL1123805, “Synthesis of certain nucleoside methylenediphosphonate sugars as potential inhibitors of glycosyltransferases” (J Med Chem, 1987).
Active and inactive are the calls of the source. No cut-off for these calls is given here.

Experiments:
[1] = system: CCRF-CEM; test: In vitro antitumor activity was evaluated against human T-lymphoblastic leukemia cell lines; None = no activity; type: functional, cell-based
[2] = system: Vero; test: In vitro antiviral activity was evaluated against vero cell lines infected with herpes simplex virus type-2; non toxic at concentrations as high as 50000 uM; type: functional, cell-based; conditions: Chlorocebus sabaeus
[3] = system: Vero; test: In vitro antiviral activity was evaluated against vero cell lines infected with adenovirus type 2; non toxic at concentrations as high as 50000 uM; type: functional, cell-based; conditions: Chlorocebus sabaeus
[4] = organism: Mus musculus; test: Glycosyltransferase inhibitory activity up to a concentration of 50 ug/mL; Without significant activity
[5] = system: Vero; test: In vitro antiviral activity was evaluated against vero cell lines infected with Parainfluenza virus type 3; non toxic at concentrations as high as 50000 uM; type: functional, cell-based; conditions: Chlorocebus sabaeus
[6] = system: WIL2; test: In vitro antitumor activity was evaluated against human B-lymphoblastic leukemia cell lines; None = no activity; type: functional, cell-based
[7] = system: Vero; test: In vitro antiviral activity was evaluated against vero cell lines infected with rhino virus; non toxic at concentrations as high as 50000 uM; type: functional, cell-based; conditions: Chlorocebus sabaeus
[8] = system: Vero; test: In vitro antiviral activity was evaluated against vero cell lines infected with influenza virus; non toxic at concentrations as high as 50000 uM; type: functional, cell-based; conditions: Chlorocebus sabaeus
[9] = system: Vero; test: In vitro antiviral activity was evaluated against vero cell lines infected with visna virus; non toxic at concentrations as high as 50000 uM; type: functional, cell-based; conditions: Chlorocebus sabaeus
[10] = system: L1210; test: In vitro antitumor activity was evaluated against L1210 leukemia cell lines; None = no activity; type: functional, cell-based; conditions: Mus musculus

Nc1ncnc2c1ncn2C1O[C@H](COP(=O)(O)CP(=O)(O)OC2O[C@H](CO)[C@@H](O)[C@H](O)[C@H]2O)[C@@H](O)[C@H]1O (stereo not given in full)
Cytotoxiciy [1]: None | Activity [2]: inactive | Activity [3]: inactive | Activity [4]: Without significant activity | Activity [5]: inactive | Cytotoxiciy [6]: None | Activity [7]: inactive | Activity [8]: inactive | Activity [9]: inactive | Cytotoxiciy [10]: None
